Patent US10105323B2, “Pharmaceutical dosage form for immediate release of an indolinone derivative” (Boehringer Ingelheim International GmbH, priority 2008, dated 2018)
Read-outs that look alike come from different tables or passages of the source.

Key:
[1] = Stress, long-term and accelerated stability studies of soft gelatin capsule systems; type: physicochemical; conditions: 1 month at 70° C., long-term (3 years), accelerated (6 months)
Text: An advantage of such soft gelatin capsule containing a lipid suspension is that the water uptake into the formulation is very unlikely. The dosage form is divided into three different compartments, namely (a) a hydrophilic capsule shell and (b) the hydrophobic carrier system in which (c) the slightly hygroscopic powder of active substance is suspended. Due to ambient moisture the content of water may vary within these different compartments. It will migrate by diffusion until an equilibrium state is reached. The water content may affect different properties of the drug product, such as the chemical stability of the active substance (predominantly via hydrolysis), the dissolution of the active substance, or the elasticity of the capsule shell. The water uptake in the present system is primarily in the capsule shell. This can be shown by water vapour sorption experiments as well as by the correlation of the mass gain with the softening of the capsule (shown in FIG. 1). […] This is confirmed by the stress stability studies of, for example, 1 month at 70° C., and by long-term (3 years) and accelerated (6 months) stability study results for the systems in accordance with the present invention.

[2] = Phase 2 monotherapy trials in NSCLC or HRPC patients, pre-dose plasma concentrations; type: in vivo, human; conditions: 150 and 250 mg twice daily, soft gelatin capsule
[3] = Phase I trials in cancer patients, dose proportionality of plasma exposure; type: in vivo, human; conditions: single dose and steady state, qd and bid dosing, visual inspection
Text: However, in three Phase I trials in cancer patients with various advanced solid tumors there was no sign for a deviation from a dose proportional increase in AUC and Cmax of the active substance observed through visual inspection neither after single dose nor at steady state for once and twice daily dosing (FIGS. 9 and 10). […] There was no deviation from dose-proportionality observed for drug plasma concentrations measured before drug administration at steady state (Cpre,ss) in cancer patients in various clinical trials, found through visual inspection.

[4] = human, in vivo

effect of water uptake on chemical stability [1]: not affect the chemical stability
gMean AUCτ,ss versus dose [3]: increased in a dose-proportional manner
gMean Cmax,ss versus dose [3]: increased in a dose-proportional manner
time to reach maximum plasma concentration (median value) [4]: 2 h
time to reach maximum plasma concentration (range) [4]: 0.75 to 6 h
plasma concentration of the active substance at maximum (gMean value) ([4]; 150 mg): about 9 ng/mL
plasma concentration as % of the maximum plasma concentration ([4]; 24 h): about 15%
plasma concentration as % of the maximum plasma concentration ([4]; 48 h): 7-8%
SMILES: COC(=O)c1ccc2c(c1)NC(=O)/C2=C(\Nc1ccc(N(C)C(=O)CN2CCN(C)CC2)cc1)c1ccccc1 [active substance, 3-Z-[1-(4-(N-((4-methyl-piperazin-1-yl)-methylcarbonyl)-N-methyl-amino)-anilino)-1-phenyl-methylene]-6-methoxycarbonyl-2-indolinone-monoethanesulphonate]
pre-dose plasma concentrations at steady state versus dose [2]: no obvious deviation from a dose proportional increase
